{
  "source": "paper PMC10906223",
  "about": "(JCI Insight, 2024)",
  "key": {"[1]": {"system": "human donor dispersed islet cells", "assay": "Glucagon secretion from healthy human donor dispersed islet cells", "type": "cell-based", "conditions": "human α cells; range of concentrations; Supplemental Figure 1A", "experimental": "(§1) Pancreata of nondiabetic C57BL/6J mice were digested using collagenase P (Roche Diagnostics, catalog 11213873001), and islets were manually picked up using a stereomicroscope (ZEISS Stemi 305). […] Isolated mouse islets or provided human islets were dispersed as described ([28]). Briefly, 100–120 islets were washed 2 times using modified HBSS, then dispersed in 600 μL Accutase (Innovative Cell Technologies, catalog AT-104) by gently pipetting up and down for 7 minutes at 37°C. […] Following refreshing of KRBH, cells were dispensed in 8 microfuge tubes (2,000 cells/tube) and treated with WCDD301, preclustered Ephrin-A5 Fc, or preclustered Fc in the presence or absence of the competitive inhibitor of EphA4 receptor, rhyncophylline ([60]) (MilliporeSigma, catalog SML2345). In the presence or absence of these effectors, secretion assay was performed sequentially as shown in Supplemental Table 5. […] Preclustering of Ephrin-A5 Fc was done by mixing Ephrin-A5 Fc or Fc alone (BioLegend, catalog 790102) with anti-Fc antibody (Invitrogen, catalog A16086) (1:10 molar ratio) 20 minutes before treatment ([62]). […] Shedding of cleaved EphA4 was measured from the cell culture medium. Experiments were performed by dispersion of 200 islets, and EphA4 levels in media were measured by EphA4 ELISA (ABclonal, catalog RK06572).\nThe Integrated Islet Distribution Program provided us human donor islets with their characteristics (Supplemental Table 6). Islets were centrifuged at 500g for 3 minutes, resuspended in CMRL 1066 medium (Gibco, catalog 1150-037) containing 11 mM glucose, and rested in an incubator overnight.\nFor the hormone secretion assay, islets or dispersed islet cells were adapted in KRBH buffer containing 11 mM glucose for 1 hour. Then, after 2 washes in HBSS containing 11 mM glucose, islets or cells were treated in the following sequential order in the presence or absence of WCDD301: incubation in KRBH (1 mM glucose, 30 minutes) followed by medium collection, incubation in KRBH (11 mM glucose, 30 minutes) followed by medium collection."}, "[2]": {"system": "murine dispersed islet cells", "assay": "Glucagon secretion from murine dispersed islet cells", "type": "cell-based, mouse", "conditions": "for Secretion of glucagon: Rhy (2.5 µM) alone, listed as Rhy", "experimental": "as §1"}, "[3]": {"assay": "Plasma stability assay, CD-1 mouse plasma", "type": "in vitro ADME", "conditions": "for Ln (% Remaining): mouse plasma, 37°C, Figure 5B", "experimental": "(§2) Pooled frozen plasma of CD-1 mice (n = 20; catalog MSE00PLK2M2N, Beijing Vital River Laboratory Animal Technology) or humans (n = 6, catalog […]2P2N, Bioreclamation IVT), equal numbers of males and females, was thawed in a 37°C water bath, and residual clots were removed by centrifugation (500g for 5 minutes). Plasma (98 μL) was aliquoted in each well of 96-well reaction plates using an Apricot automation workstation. WCDD301 (100 μM) or propantheline bromide (100 μM, as a positive control) was added (2 μL/well) to sets of wells assigned to blank or time points (T0, T10, T30, T60, and T120 minutes) and incubated at 37°C. At each time point, the reaction was stopped by adding stop solution (500 μL; a mixture of 200 ng/mL of tolbutamide and labetalol in acetonitrile), mixed thoroughly, sealed, shaken (20 minutes), and centrifuged (1,750g, 4°C, 20 minutes). A total of 150 μL of the supernatant from each well of the reaction plate was transferred to its corresponding bioanalysis plate for LC-MS/MS analysis. The remaining level (%) of the WCDD301 was calculated using the following equation: remaining (%) = (PAR at each time point/PAR at T0) × 100. PAR stands for the peak area ratio of the WCDD301 versus internal standard."}, "[4]": {"assay": "Plasma stability assay, human plasma", "type": "in vitro ADME", "conditions": "for Ln (% Remaining): human plasma, 37°C, Figure 5A", "experimental": "as §2"}, "[5]": {"assay": "Microsomal stability assay, human liver microsomes", "type": "in vitro ADME", "conditions": "for Remaining in hepatic microsomes (100 at 0 min): human microsomes, Figure 5C; for Hepatic clearance: predicted from microsomal data", "experimental": "(§3) A total of 445 μL of the working solution was transferred into prewarmed incubation plates for treated (T60) and control (NCF60) measurements. After preincubation (10 minutes at 37°C with constant shaking), 54 μL was transferred to the blank plate, followed by 6 μL of NADPH and 180 μL quenching solution. In parallel, 5 μL of WCDD301 (100 μM) was added into incubation plates (T60 and NCF60) containing microsomes and mixed thoroughly (3 times). For the NCF60 plate, 50 μL of buffer was added, mixed (thoroughly, 3 times), shaken, and incubated at 37°C for 60 minutes. In the quenching plate T0, quenching solution (180 μL) and NADPH cofactor (6 μL) were added. For T60 plate, 54 μL of the mixture was placed into the quenching plate (for T0 point), followed by adding 44 μL NADPH cofactor with shaking incubation at 37°C for 60 minutes. Quenching solution (180 μL) was added to quenching plates at 5, 15, 30, 45, and 60 minutes, and 60 μL of sample was transferred from T60 plate per time point to the quenching plates. For the NCF60 plates, 60 μL sample from the NCF60 incubation plate was transferred to the quenching plate (containing quenching solution) at the 60-minute time point. After plates were shaken for 10 minutes and centrifuged (1,750g, 20 minutes at 4°C), 80 μL of the supernatant was transferred into 240 μL HPLC water for LC-MS/MS analysis. The following first-order kinetic equation was used to calculate half-life (T1/2): [drawing 3]; when\n(§4) Then, intrinsic clearance [CLint (microsomal; mic)] and hepatic clearance [CLint (liver)] were predicted using the following equations ([66]): […]"}, "[6]": {"assay": "Microsomal stability assay, CD-1 mouse liver microsomes", "type": "in vitro ADME", "conditions": "for Remaining in hepatic microsomes (100 at 0 min): mouse microsomes, Figure 5D; for Hepatic clearance: mouse, predicted from microsomal data", "experimental": "as §3, §4"}},
  "note": "Where “and” joins values, the source holds several entries; their conditions need not be identical. Equal entries are not always repeated.",
  "data": [
    {"smiles": "COc1cc2nc(N3CCN(C(=O)C4COc5ccccc5O4)CC3)nc(N)c2cc1OC", "note": "(centres unmarked) [Doxazosin, reference compound]", "values": [
      {"measurement": "Effect on glucagon secretion", "setting": "[1]", "value": "increased glucagon secretion"},
      {"measurement": "Effect on glucagon secretion", "setting": "[2]; mouse α cells, range of concentrations, Supplemental Figure 1B-E", "value": "increased glucagon secretion"}
    ]},
    {"smiles": "CC[C@H]1CN2CC[C@]3(C(=O)Nc4ccccc43)[C@@H]2C[C@@H]1/C(=C\\OC)C(=O)OC", "note": "[rhyncophylline, reference compound]", "values": [
      {"measurement": "Secretion of glucagon", "setting": "[2]; Glucose (1 mM), Figure 1H", "value": "0.87 and 0.81 and 0.85 and 0.79 and 0.82"},
      {"measurement": "Secretion of glucagon", "setting": "[2]; Glucose (11 mM), Figure 1H", "value": "0.41 and 0.5 and 0.38 and 0.45 and 0.4"},
      {"measurement": "Effect of EphA4 inhibition on suppression of glucagon secretion", "setting": "[2]; competitive inhibitor of EphA4, Figure 1H", "value": "abolished the suppressive effect of both Ephrin-A5 and 1.5 μM WCDD301 on glucagon secretion"}
    ]},
    {"smiles": "N=C(N)NCCC[C@H](N)C(=O)O", "note": "[Arginine, reference compound]", "values": [
      {"measurement": "Effect on glucagon secretion", "setting": "[2]; Arginine 25 mM alone, Supplemental Figure 2", "value": "significantly increased glucagon secretion"}
    ]},
    {"smiles": "CC(C)[N+](C)(CCOC(=O)C1c2ccccc2Oc2ccccc21)C(C)C", "note": "[Propantheline, propantheline bromide]", "values": [
      {"measurement": "half-life at 2 µM", "setting": "[3]; both sexes, CD-1, mouse, plasma", "value": 34.3, "unit": "min"},
      {"measurement": "Ln (% Remaining)", "setting": "[3]; 10 min", "value": -0.31},
      {"measurement": "Ln (% Remaining)", "setting": "[3]; 30 min", "value": -0.9},
      {"measurement": "Ln (% Remaining)", "setting": "[3]; 60 min", "value": -1.58},
      {"measurement": "Ln (% Remaining)", "setting": "[3]; 120 min", "value": -2.45},
      {"measurement": "half-life at 2 µM", "setting": "[4]; both sexes, human, plasma", "value": 9.8, "unit": "min"},
      {"measurement": "Ln (% Remaining)", "setting": "[4]; 10 min", "value": -0.39},
      {"measurement": "Ln (% Remaining)", "setting": "[4]; 30 min", "value": -2.06},
      {"measurement": "Ln (% Remaining)", "setting": "[4]; 60 min", "value": -4.13}
    ]},
    {"smiles": "C[C@]12CC[C@H]3[C@@H](CCC4=CC(=O)CC[C@@]43C)[C@@H]1CC[C@@H]2O", "note": "[Testosterone]", "values": [
      {"measurement": "Intrinsic microsomal clearance", "setting": "[5]; human", "value": 95.6, "unit": "µL/min/mg"},
      {"measurement": "Microsomal half-life", "setting": "[5]; human", "value": 14.5, "unit": "min"},
      {"measurement": "Remaining in hepatic microsomes (100 at 0 min)", "setting": "[5]; 5 min", "value": 78.1},
      {"measurement": "Remaining in hepatic microsomes (100 at 0 min)", "setting": "[5]; 15 min", "value": 33},
      {"measurement": "Remaining in hepatic microsomes (100 at 0 min)", "setting": "[5]; 30 min", "value": 12.9},
      {"measurement": "Remaining in hepatic microsomes (100 at 0 min)", "setting": "[5]; 45 min", "value": 8.4},
      {"measurement": "Remaining in hepatic microsomes (100 at 0 min)", "setting": "[5]; 60 min", "value": 6.4},
      {"measurement": "Hepatic clearance", "setting": "[5]; human", "value": 86, "unit": "mL/min/kg"},
      {"measurement": "half-life at 1 µM", "setting": "[6]; CD-1, mouse, liver microsomes", "value": 5.4, "unit": "min"},
      {"measurement": "microsomal CLint at 1 µM", "setting": "[6]; CD-1, mouse, liver microsomes, read-out: Intrinsic microsomal clearance", "value": 257, "unit": "µL/min/mg"},
      {"measurement": "Remaining in hepatic microsomes (100 at 0 min)", "setting": "[6]; 5 min", "value": 43.1},
      {"measurement": "Remaining in hepatic microsomes (100 at 0 min)", "setting": "[6]; 15 min", "value": 11.2},
      {"measurement": "Remaining in hepatic microsomes (100 at 0 min)", "setting": "[6]; 30 min", "value": 2},
      {"measurement": "Hepatic clearance", "setting": "[6]", "value": 1018.5, "unit": "mL/min/kg"}
    ]},
    {"smiles": "O=C(O)Cc1ccccc1Nc1c(Cl)cccc1Cl", "note": "[Diclofenac]", "values": [
      {"measurement": "Intrinsic microsomal clearance", "setting": "[5]; human", "value": 313.9, "unit": "µL/min/mg"},
      {"measurement": "Remaining in hepatic microsomes (100 at 0 min)", "setting": "[5]; 5 min", "value": 48.7},
      {"measurement": "Remaining in hepatic microsomes (100 at 0 min)", "setting": "[5]; 15 min", "value": 9.3},
      {"measurement": "Remaining in hepatic microsomes (100 at 0 min)", "setting": "[5]; 30 min", "value": 0.9},
      {"measurement": "half-life at 1 µM", "setting": "[5]; human, liver microsomes", "value": 4.4, "unit": "min"},
      {"measurement": "Hepatic clearance", "setting": "[5]; human", "value": 282.5, "unit": "mL/min/kg"},
      {"measurement": "Remaining in hepatic microsomes (100 at 0 min)", "setting": "[6]; 5 min", "value": 85.5},
      {"measurement": "Remaining in hepatic microsomes (100 at 0 min)", "setting": "[6]; 15 min", "value": 77.8},
      {"measurement": "Remaining in hepatic microsomes (100 at 0 min)", "setting": "[6]; 30 min", "value": 58.6},
      {"measurement": "Remaining in hepatic microsomes (100 at 0 min)", "setting": "[6]; 45 min", "value": 52.8},
      {"measurement": "Remaining in hepatic microsomes (100 at 0 min)", "setting": "[6]; 60 min", "value": 39.3},
      {"measurement": "Hepatic clearance", "setting": "[6]", "value": 115.5, "unit": "mL/min/kg"}
    ]}
  ]
}
